Data from patent publication US9107852B2, “Uses of agonists of delta opioid receptor in cosmetic and dermocosmetic field” (Induchem Holding AG, priority 2012, dated 2015).

Experiments:
[1] = tested on: opioid receptor delta (DOR); test: Expression of DOR in epidermis, tissue microarray immunohistochemical labeling; format: cell-based, human; conditions: RHE treated with PMA at 2 μg, compared to non-treated RHE
Method: The protein expression of the opioid receptor delta (DOR) was analyzed using a “tissue microarray” (TMA) composed of numerous skin-related cellular models in order to identify the best models for further studies.
Formaldehyde-fixed tissues were dehydrated in multiple baths with increasing concentration of ethanol and then embedded in “Paraplast X-tra” paraffin. The transversal sections were carried out using a microtome (5 μm thickness) and kept at room temperature until staining.
The sections were deparaffinized then the antigenic sites were retrieved using specific buffers (pH6 and pH9). The sections were then washed and incubated with hydrogen peroxide. After an additional washing step, the sections were incubated with the primary antibody (anti-DOR). […] After peroxidase-conjugated streptavidine and peroxidase substrate addition, nuclei were counter-stained with a solution of haematoxylin. The slices were washed in ultra-pure water and mounted in aqueous medium.
Sections were observed using a NIKON E400 microscope. Images were captured with a NIKON DS-Ri1 and processed with NIS-Elements 3.10 software.

delta2 opioid receptor = molecular target: T1, delta2 opioid receptor (Mus musculus, UniProt P32300); test: Agonist effect at the delta2 opioid receptor (DOP), cell impedance; format: cell-based; conditions: percent of control specific agonist response (DPDPE)
T1 construct: host or cells: unnamed cells 'bearing the delta2 opioid receptor'
Method: Frozen spinach leaves were thawed and disrupted in fine particles a blender. This juice was further treated with ultrasounds to disrupt cells and proteins were recovered by acidic precipitation. These proteins were then digested by several enzymes, including pepsin and papain. The hydrolysate was purified (ultrafiltration), fractionated and stored before testing. Meanwhile, synthetic peptides were ordered from a manufacturer. The peptides and the hydrolysates were tested on cells bearing the delta2 opioid receptor and cell impedance was measured to evaluate the binding activity of the tested compounds (Law and Loh, 1993).
The EC50 values (concentration producing a half-maximal specific response) and IC50 values (concentration causing a half-maximal inhibition of the control specific agonist response) were determined by non-linear regression analysis of the concentration-response curves generated with mean replicate values using Hill equation curve fitting (Y=D+[(A D)/(1+(C/C50)nH)], where Y=specific response, D=minimum specific response, A=maximum specific response, C=compound concentration, and C50=EC50 or IC50, and nH=slope factor).

[2] = tested on: opioid receptor delta (DOR); test: Scoring of DOR1 expression in RHE stimulated with cytokines; format: cell-based, human; conditions: JAK inhibitor I tested at 10 μM
Method: In the present study, the effects of a peptide (YPLDLF, SEQ ID No 1) on the expression of opioid receptor delta (DOR) were researched on a reconstructed human epidermis (RHE) model under basal or stimulated conditions. More precisely, the RHE were stimulated by a mix of cytokines (IL-17+OSM+TNF-α) able to induce a strong inflammatory profile and a psoriatic phenotype in keratinocytes.
Reconstructed human epidermis (RHE) of 11 days old was prepared according to a derived method described by Poumay et al. (2004). These RHE were cultivated at 37° C. and 5% of CO2 in a specific maintenance medium.
The RHE treated under basal conditions were placed in assay medium containing or not (non-stimulated control) the peptide solutions and incubated for 54 hours. For inflammatory conditions, the RHE were placed in assay medium containing or not (stimulated control) the peptide solutions or the reference […] at 10 μM) and pre-incubated for 6 hours. The RHE were then stimulated with a mix of cytokines (IL-17+OSM+TNF-α at 3 ng/ml) and incubated for 48 hours. All experimental conditions were performed in n=3.
At the end of incubation, the supernatants were collected and the RHE were washed in phosphate buffered saline solution (PBS) for immunohistofluorescence analysis. […]

T1 sequence (P32300 whole entry): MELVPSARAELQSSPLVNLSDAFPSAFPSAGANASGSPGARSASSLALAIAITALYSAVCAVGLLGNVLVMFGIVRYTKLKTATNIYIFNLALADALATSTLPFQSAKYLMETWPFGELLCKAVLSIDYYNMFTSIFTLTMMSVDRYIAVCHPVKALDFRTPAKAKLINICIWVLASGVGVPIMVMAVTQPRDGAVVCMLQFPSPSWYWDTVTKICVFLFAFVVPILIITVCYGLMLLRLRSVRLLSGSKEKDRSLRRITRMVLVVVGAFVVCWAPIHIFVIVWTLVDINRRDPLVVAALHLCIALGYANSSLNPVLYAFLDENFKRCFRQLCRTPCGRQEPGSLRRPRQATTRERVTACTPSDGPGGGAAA

Compound: CCCCCCCCCCCCCC(=O)O[C@@H]1[C@@H](C)[C@@]2(O)[C@@H](C=C(CO)C[C@]3(O)C(=O)C(C)=C[C@@H]23)[C@@H]2C(C)(C)[C@]12OC(C)=O [PMA, Phorbol myristate acetate]
- expression of DOR [1]: DOR was decreased after Phorbol myristate

Compound: D-Penicillamine(2,5)-enkephalin [DPDPE, reference compound]
- A (Hill curve fit parameter) (delta2 opioid receptor): 0.0
- D (Hill curve fit parameter) (delta2 opioid receptor): 95.8

Compound: JAK inhibitor I [reference compound]
- inhibitory effect of the cytokine mix on OPRD1 expression [2]: reversed
